Measurements published in patent US9938261B2, “Heterocyclic compounds and methods of use thereof” (AMBIT BIOSCIENCES CORPORATION, priority 2011, dated 2018).
Where two headings read alike, the source gives them in different places.

Legend:
[1] = target: CSF1R (Homo sapiens, UniProt P07333); assay: Competition binding assay, CSF1R Kd; set-up: made in house
How it was run: (§1)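 Kinases as T7-phage fusions or HEK-293-expressed DNA-tagged constructs competed against immobilized biotinylated ligand on streptavidin beads, 1 h at room temperature in binding buffer. Bound kinase eluted and quantified by qPCR; Kd from eleven-point threefold dilution series.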

[2] = target: T1, KIT (Homo sapiens, UniProt P10721); assay: Competition binding assay, KIT Kd
T1 construct: made in house
How it was run: as §1

[3] = target: T2, FLT3 (Homo sapiens, UniProt P36888); assay: Competition binding assay, FLT3 Kd
T2 construct: made in house
T2 sequence (P36888 27-993): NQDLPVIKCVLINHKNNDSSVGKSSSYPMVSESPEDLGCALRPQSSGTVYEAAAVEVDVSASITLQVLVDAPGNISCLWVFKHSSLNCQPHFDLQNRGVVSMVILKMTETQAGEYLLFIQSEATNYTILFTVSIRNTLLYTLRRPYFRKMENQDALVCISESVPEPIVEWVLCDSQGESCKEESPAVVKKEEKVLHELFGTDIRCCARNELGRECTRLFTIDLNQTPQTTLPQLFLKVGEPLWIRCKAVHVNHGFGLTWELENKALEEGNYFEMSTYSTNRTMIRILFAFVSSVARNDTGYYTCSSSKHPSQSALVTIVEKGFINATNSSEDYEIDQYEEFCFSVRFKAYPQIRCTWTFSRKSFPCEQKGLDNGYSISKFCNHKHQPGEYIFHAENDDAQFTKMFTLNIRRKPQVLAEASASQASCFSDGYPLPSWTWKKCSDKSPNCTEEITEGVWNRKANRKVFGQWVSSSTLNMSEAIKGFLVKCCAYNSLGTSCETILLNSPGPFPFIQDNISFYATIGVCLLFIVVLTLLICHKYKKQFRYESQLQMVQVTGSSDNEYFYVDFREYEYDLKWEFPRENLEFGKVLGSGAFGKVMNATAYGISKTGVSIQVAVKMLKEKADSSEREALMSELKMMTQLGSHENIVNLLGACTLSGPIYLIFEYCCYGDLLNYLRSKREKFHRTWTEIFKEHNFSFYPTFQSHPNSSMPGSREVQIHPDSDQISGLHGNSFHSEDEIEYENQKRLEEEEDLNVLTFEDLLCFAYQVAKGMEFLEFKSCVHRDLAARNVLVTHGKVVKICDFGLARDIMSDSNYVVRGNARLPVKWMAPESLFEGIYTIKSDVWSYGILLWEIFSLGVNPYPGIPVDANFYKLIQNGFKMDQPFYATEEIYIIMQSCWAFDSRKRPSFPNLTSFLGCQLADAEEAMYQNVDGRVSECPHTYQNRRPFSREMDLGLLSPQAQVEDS
How it was run: as §1

[4] = tested on: M-NFS-60 cells; assay: M-NFS-60 cell proliferation assay (Alamar Blue); type: cell-based, mouse; conditions: read-out: CSF1R M-NFS-60 CTB:IC50
How it was run: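 Mouse M-NFS-60 cells growing on 20 ng/mL M-CSF in RPMI/10% FBS were exposed to compounds (9 half-log concentrations, 0.5% DMSO) for 72 h at 37 °C. Viability read by Alamar Blue fluorescence (ex 560/em 590 nm, 3 h). IC50 = 50% proliferation inhibition versus control, mean of duplicates.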

[5] = target: T3, PDGFRβ (Homo sapiens, UniProt P09619); assay: Competition binding assay, PDGFRβ Kd
T3 construct: made in house
How it was run: as §1

[6] = target: kinase panel containing either 386 or 392 distinct kinases; assay: Kinase selectivity score S10 from competition binding panel
Description: Competition binding assays used herein were developed, validated and performed as described in Fabian et al., Nature Biotechnology 2005, 23, 329-336. Kinases were produced as fusions to T7 phage (See, Fabian et al. or WO04/015142) or alternatively, the kinases were expressed in HEK-293 cells and subsequently tagged with DNA for PCR detection (See, WO08/005310). For the binding assays, streptavidin-coated magnetic beads were treated with biotinylated affinity ligands for 30 min at room temperature to generate affinity resins. The liganded beads were blocked with excess biotin and washed with blocking buffer (SeaBlock (Pierce), 1% BSA, 0.05% Tween 20, 1 mM DTT) to remove unbound ligand and to reduce non-specific binding. Binding reactions were assembled by combining kinase, liganded affinity beads, and test compounds in 1× binding buffer (20% SeaBlock, 0.17×PBS, 0.05% Tween 20, 6 mM DTT). Test compounds were prepared as 100× stocks in DMSO and diluted into the aqueous environment. Kds were determined using an eleven point threefold serial dilutions. DMSO or control compounds were was added to control assays lacking a test compound. Primary screen assays were performed in polypropylene 384-well plates in a final volume of 20-40 μL, while Kd determinations were performed in polystyrene 96-well plates in a final volume of 135 μL. The assay plates were incubated at room temperature with shaking for 1 hour to allow the binding reactions to reach equilibrium, and the affinity beads were washed extensively with wash buffer (1×PBS, 0.05% Tween 20) to remove unbound protein. The beads were then resuspended in elution buffer (1×PBS, 0.05% Tween […] non-biotinylated affinity ligand) and incubated at room temperature with shaking for 30 min. The kinase concentration in the eluates was measured by quantitative PCR.
A selectivity score (S10) is a quantitative measure of selectivity of a compound against a panel of kinases. An S10 was calculated for a compound by dividing the number of kinases found to have a percent of control (DMSO) less than 10 by the total number of distinct kinases tested (excluding mutant variants). Percent of control (POC) is calculated by subtracting the signal of the control compound (POC=0) from the signal of the test compound and dividing the outcome by the signal of DMSO (POC=100) minus the signal of the control compound. For the compounds disclosed herein, S10 scores were obtained by testing the compounds at 10 μM concentration in a kinase panel containing either 386 or 392 distinct kinases.

[7] = Mus musculus, 72 hours incubation, M-CSF 20 ng/mL
[8] = compounds at 10 μM, 386 or 392 distinct kinases
[9] = Mus musculus, M-NFS-60 cell proliferation
[10] = 10 μM, panel of 386 or 392 distinct kinases
[11] = 72 hours incubation, M-CSF 20 ng/mL

T3 sequence (P09619 33-1106): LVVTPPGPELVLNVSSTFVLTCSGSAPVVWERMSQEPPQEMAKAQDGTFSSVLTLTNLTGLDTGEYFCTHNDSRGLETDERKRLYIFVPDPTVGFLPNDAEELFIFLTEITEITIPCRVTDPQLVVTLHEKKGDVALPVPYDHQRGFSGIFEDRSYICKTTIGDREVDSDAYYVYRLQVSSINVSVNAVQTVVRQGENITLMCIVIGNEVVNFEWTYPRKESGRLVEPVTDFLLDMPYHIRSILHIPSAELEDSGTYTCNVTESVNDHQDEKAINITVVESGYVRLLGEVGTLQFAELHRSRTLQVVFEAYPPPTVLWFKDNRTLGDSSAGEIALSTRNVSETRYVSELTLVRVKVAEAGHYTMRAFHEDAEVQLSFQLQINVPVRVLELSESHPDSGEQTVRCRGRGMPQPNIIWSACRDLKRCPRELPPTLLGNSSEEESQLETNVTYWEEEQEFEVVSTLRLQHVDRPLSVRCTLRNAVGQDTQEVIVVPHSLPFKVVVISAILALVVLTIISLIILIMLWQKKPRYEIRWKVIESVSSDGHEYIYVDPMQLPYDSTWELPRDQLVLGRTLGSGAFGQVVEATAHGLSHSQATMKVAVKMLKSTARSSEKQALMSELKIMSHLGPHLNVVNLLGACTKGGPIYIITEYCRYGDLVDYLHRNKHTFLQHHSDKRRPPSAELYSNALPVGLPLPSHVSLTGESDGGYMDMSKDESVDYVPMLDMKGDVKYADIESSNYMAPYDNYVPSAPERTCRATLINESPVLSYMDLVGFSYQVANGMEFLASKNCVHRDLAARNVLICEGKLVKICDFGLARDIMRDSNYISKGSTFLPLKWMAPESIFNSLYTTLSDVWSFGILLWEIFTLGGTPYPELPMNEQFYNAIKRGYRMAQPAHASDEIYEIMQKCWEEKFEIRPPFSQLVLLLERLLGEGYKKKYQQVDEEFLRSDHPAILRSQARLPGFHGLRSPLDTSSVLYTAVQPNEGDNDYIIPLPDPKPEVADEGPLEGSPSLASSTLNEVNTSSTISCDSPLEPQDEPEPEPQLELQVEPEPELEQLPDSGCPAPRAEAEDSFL
CSF1R, sequence (P07333 20-972): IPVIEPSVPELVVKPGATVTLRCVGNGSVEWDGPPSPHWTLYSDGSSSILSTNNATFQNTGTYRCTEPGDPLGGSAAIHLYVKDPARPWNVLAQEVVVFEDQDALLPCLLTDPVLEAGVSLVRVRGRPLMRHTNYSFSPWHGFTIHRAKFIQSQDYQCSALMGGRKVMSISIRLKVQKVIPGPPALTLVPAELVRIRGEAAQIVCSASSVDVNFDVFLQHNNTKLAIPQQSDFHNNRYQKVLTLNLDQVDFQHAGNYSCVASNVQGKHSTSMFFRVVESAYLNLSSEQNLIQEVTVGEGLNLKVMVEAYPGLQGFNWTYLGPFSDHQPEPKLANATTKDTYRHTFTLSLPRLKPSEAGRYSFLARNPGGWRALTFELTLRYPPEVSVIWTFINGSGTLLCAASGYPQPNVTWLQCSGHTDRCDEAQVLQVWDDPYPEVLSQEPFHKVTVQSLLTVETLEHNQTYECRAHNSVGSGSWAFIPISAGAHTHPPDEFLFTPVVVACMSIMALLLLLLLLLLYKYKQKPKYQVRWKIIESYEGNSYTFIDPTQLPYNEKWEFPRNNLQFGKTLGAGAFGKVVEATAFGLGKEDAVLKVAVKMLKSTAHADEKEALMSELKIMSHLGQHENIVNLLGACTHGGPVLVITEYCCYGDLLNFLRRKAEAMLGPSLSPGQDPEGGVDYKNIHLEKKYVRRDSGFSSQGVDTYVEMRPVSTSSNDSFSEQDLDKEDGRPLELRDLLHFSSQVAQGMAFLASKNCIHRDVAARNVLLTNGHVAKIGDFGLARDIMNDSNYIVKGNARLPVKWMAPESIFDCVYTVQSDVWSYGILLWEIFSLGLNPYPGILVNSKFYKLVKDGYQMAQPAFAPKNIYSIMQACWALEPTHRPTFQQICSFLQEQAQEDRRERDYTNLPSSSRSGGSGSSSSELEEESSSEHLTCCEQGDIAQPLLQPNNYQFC
T1 sequence (P10721 26-976): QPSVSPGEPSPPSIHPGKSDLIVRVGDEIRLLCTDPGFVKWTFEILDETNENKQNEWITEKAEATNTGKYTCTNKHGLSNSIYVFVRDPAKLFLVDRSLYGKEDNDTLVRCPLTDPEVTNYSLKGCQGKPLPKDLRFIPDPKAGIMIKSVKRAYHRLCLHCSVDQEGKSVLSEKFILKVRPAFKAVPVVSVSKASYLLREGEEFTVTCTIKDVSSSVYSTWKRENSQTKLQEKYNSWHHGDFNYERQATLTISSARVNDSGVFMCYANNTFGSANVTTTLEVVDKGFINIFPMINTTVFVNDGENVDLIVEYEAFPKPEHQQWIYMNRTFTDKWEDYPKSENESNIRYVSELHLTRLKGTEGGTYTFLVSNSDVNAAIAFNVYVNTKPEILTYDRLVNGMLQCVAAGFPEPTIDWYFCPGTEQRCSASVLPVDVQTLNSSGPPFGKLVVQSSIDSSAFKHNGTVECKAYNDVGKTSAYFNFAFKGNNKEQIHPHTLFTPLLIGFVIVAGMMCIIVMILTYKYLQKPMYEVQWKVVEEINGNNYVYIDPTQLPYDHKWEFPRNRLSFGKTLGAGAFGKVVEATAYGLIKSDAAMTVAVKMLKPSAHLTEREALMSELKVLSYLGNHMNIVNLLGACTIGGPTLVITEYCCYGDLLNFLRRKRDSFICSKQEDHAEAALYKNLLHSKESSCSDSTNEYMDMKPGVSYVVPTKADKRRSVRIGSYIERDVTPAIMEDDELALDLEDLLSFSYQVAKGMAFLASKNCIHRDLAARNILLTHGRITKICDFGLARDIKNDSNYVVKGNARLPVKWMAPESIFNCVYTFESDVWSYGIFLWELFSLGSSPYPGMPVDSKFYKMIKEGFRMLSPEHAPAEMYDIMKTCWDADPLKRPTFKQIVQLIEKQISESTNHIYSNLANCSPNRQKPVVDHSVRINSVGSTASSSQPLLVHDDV

Molecule	Kd [1] [nM]	Kd [2] [nM]	Kd [3] [nM]	Kd [5] [nM]	Kinase specificity S(10) [6, 8]	Kd ([1]; competition binding) [nM]	Kd ([2]; competition binding) [nM]	Kd ([3]; competition binding) [nM]	Kd ([5]; competition binding) [nM]	Kinase specificity S(10) [6, 10]	IC50 [4, 7] [nM]	IC50 [4, 9] [nM]	IC50 [4, 11] [nM]
COc1cc2ncn(Cc3ccc4nc(N[C@@H]5CCCCC[C@H]5O)sc4c3)c2cc1OC (racemic) [Example 50, (±)-2-((6-((5,6-dimethoxy-1H-benzo[d]imidazol-1-yl)methyl)benzo[d]thiazol-2-yl)amino)cycloheptanol]	≤ 5	≤ 100	≤ 200	≤ 50	C (C>0.02)						≤ 50		
either (1R,2R)-2-((6-((3H-imidazo[4,5-b]pyridin-3-yl)methyl)benzo[d]thiazol-2-yl)amino)-1-methylcyclohexanol or (1S,2R)-2-((6-((3H-imidazo[4,5-b]pyridin-3-yl)methyl)benzo[d]thiazol-2-yl)amino)-1-methylcyclohexanol [Example 60]	5 to 20	100 to 500	1000 to 5000	≤ 50	B (0.01<B≤0.02)								50 to 400
O[C@@H]1CCCC[C@H]1Nc1nc2ccc(Cn3cnc4cc(-c5cccnc5)cnc43)cc2s1 [Example 40, (1R,2R)-2-((6-((6-(pyridin-3-yl)-3H-imidazo[4,5-b]pyridin-3-yl)methyl)benzo[d]thiazol-2-yl)amino)cyclohexanol]	≤ 5	≤ 100	≤ 200	≤ 50	B (0.01<B≤0.02)						≤ 50		
O[C@@H]1CCCC[C@H]1Nc1nc2ccc(Cn3cnc4cc(Cl)cnc43)cc2s1 [Example 55, (1R,2R)-2-((6-((6-chloro-3H-imidazo[4,5-b]pyridin-3-yl)methyl)benzo[d]thiazol-2-yl)amino)cyclohexanol]	5 to 20	≤ 100	1000 to 5000	≤ 50	B (0.01<B≤0.02)						≤ 50		
either (1S,2R)-2-((6-((3H-imidazo[4,5-b]pyridin-3-yl)methyl)benzo[d]thiazol-2-yl)amino)-1-methylcyclohexanol or (1R,2R)-2-((6-((3H-imidazo[4,5-b]pyridin-3-yl)methyl)benzo[d]thiazol-2-yl)amino)-1-methylcyclohexanol [Example 59]	5 to 20	100 to 500	1000 to 5000	50 to 500	C (C>0.02)								50 to 400
COc1cc2c(cc1Br)ncn2Cc1ccc2nc(N[C@@H]3CCCC[C@H]3O)sc2c1 [Example 41, (1R,2R)-2-((6-((5-bromo-6-methoxy-1H-benzo[d]imidazol-1-yl)methyl)benzo[d]thiazol-2-yl)amino)cyclohexanol]	5 to 20	100 to 500	200 to 1000	500 to 2000	A (A≤0.01)						50 to 400		
COc1cc2c(cc1-c1cnn(C)c1)ncn2Cc1ccc2nc(N[C@@H]3CCCC[C@H]3O)sc2c1 [Example 51, (1R,2R)-2-((6-((6-methoxy-5-(1-methyl-1H-pyrazol-4-yl)-1H-benzo[d]imidazol-1-yl)methyl)benzo[d]thiazol-2-yl)amino)cyclohexanol]	≤ 5	≤ 100	≤ 200	≤ 50	C (C>0.02)						≤ 50		

Further lines, with some results ahead:

Kd [1] [nM]	Kd [2] [nM]	Kd [3] [nM]	Kd [5] [nM]	Kinase specificity S(10) [6, 8]	Kd ([1]; competition binding) [nM]	Kd ([2]; competition binding) [nM]	Kd ([3]; competition binding) [nM]	Kd ([5]; competition binding) [nM]	Kinase specificity S(10) [6, 10]	Molecule	IC50 [4, 7] [nM]	IC50 [4, 9] [nM]	IC50 [4, 11] [nM]
5 to 20	100 to 500	1000 to 5000	50 to 500	A (A≤0.01)						OCc1cnc2c(c1)ncn2Cc1ccc2nc(N[C@@H]3CCCC[C@H]3O)sc2c1 [Example 84, (1R,2R)-2-((6-((6-(hydroxymethyl)-3H-imidazo[4,5-b]pyridin-3-yl)methyl)benzo[d]thiazol-2-yl)amino)cyclohexanol]	50 to 400		
5 to 20	500 to 2000	1000 to 5000	500 to 2000	A (A≤0.01)						Cn1cc(-c2cn(Cc3ccc4nc(N[C@@H]5CCCC[C@H]5O)oc4c3)cn2)cn1 [Example 77, (1R,2R)-2-((6-((4-(1-methyl-1H-pyrazol-4-yl)-1H-imidazol-1-yl)methyl)benzo[d]oxazol-2-yl)amino)cyclohexanol]	400 to 1500		
					5 to 20	500 to 2000	1000 to 5000	50 to 500	A (A≤0.01)	C=Cc1ccn2c(Cc3ccc4nc(N[C@@H]5CCCC[C@H]5O)sc4c3)cnc2c1 [Example 216, (1R,2R)-2-((6-((7-vinylimidazo[1,2-a]pyridin-3-yl)methyl)benzo[d]thiazol-2-yl)amino)cyclohexanol]		50 to 400	
					≤ 5	100 to 500	200 to 1000	50 to 500	A (A≤0.01)	N#CCOc1ccc2c(c1)ncn2Cc1ccc2nc(N[C@@H]3CCCC[C@H]3O)sc2c1 [Example 196, 2-((1-((2-(((1R,2R)-2-hydroxycyclohexyl)amino)benzo[d]thiazol-6-yl)methyl)-1H-benzo[d]imidazol-5-yl)oxy)acetonitrile]		50 to 400	
20 to 50	100 to 500	1000 to 5000	50 to 500	B (0.01<B≤0.02)						O=C(O)c1cnc2c(c1)ncn2Cc1ccc2nc(N[C@@H]3CCCC[C@H]3O)sc2c1 [Example 81, 3-((2-(((1R,2R)-2-hydroxycyclohexyl)amino)benzo[d]thiazol-6-yl)methyl)-3H-imidazo[4,5-b]pyridine-6-carboxylic acid]	> 1500		
5 to 20	≤ 100	200 to 1000	≤ 50	C (C>0.02)						CSCc1cnc2c(c1)ncn2Cc1ccc2nc(N[C@@H]3CCCC[C@H]3O)sc2c1 [Example 86, (1R,2R)-2-((6-((6-((methylthio)methyl)-3H-imidazo[4,5-b]pyridin-3-yl)methyl)benzo[d]thiazol-2-yl)amino)cyclohexanol]	50 to 400		
